The values that follow come from patent US20240294529A1, “6H-IMIDAZO[1,2-A]PYRROLO[2,3-E]PYRIDINE DERIVATIVES FOR USE IN THERAPY” (SANOFI, priority 2021, published 2024).

Data set [1] has as its target T1, hNur77 (Homo sapiens, UniProt P22736).
T1 construct: The pFR-Luc (Gal4 UAS luciferase) reporter sits in the same cells, and expression is induced by doxycycline
The data set is described as follows: Activity on HEK-Nur77 modulation (Gal4-DBD luciferase reporter in stable HEK293 cells). The data set is classed as cell-based. To be noted: 24 hours with compound. The method, then: Stable HEK293 cells expressing Gal4-DBD-FL-NOT, -hNur77, -hNOR1 and Pfr-Luc were obtained by limit dilution. HEK cells were grown in 75 cm^2 flask in DMEM high glucose 30-2002™ containing 10% calf serum, hygromycin at a content of 250 μg/ml, doxycyclin at a content of 2 μg/ml (to induce expression) and 0.4 mg/ml of penicillin. After one week in culture, cells were harvested by trypsinization then plated onto 96 well dishes at the density of 20,000 cell per well in 75 μl of culture medium. After 24 hours compounds were added (25 μl per well) at different concentration for further 24 hours. The medium was removed and measurement was performed by adding 50 μl of Steadyglo (Promega, E2510) with 50 μl PBS per well for 15 minutes and plates were read using microplate luminescent reader.

The target of data set [2] is T2, Nurr1 (Mus musculus, UniProt Q06219).
T2 construct: N2A cells obtained from ATCC were stably transfected with NBRE8x (50-AAGGTCA-30) in tandem coupled with luciferase reporter gene; host or cells: N2A neuroblastoma cells
The data set is described as follows: Activity on neuroblastomas cell lines - Nurr1 modulation (N2A cells, NBRE8x luciferase reporter). The note with it: N2A cells stably transfected with NBRE8x-luciferase, 24 hours with compound; read-out: EC50 activity, Nurr1 modulation in N2A neuroblastoma cells. The data set is classed as cell-based. The method, then:
N2A cells obtained from ATCC were stably transfected with NBRE8x (50-AAGGTCA-30) in tandem coupled with luciferase reporter gene. Each NBRE sequence was separated with 5 nucleotides. N2A were grown in 75 cm^2 flask in DMEM containing 10% calf serum, 4.5 g/L glucose and 0.4 mg/ml geneticin. After one week in culture cells were harvested by trypsinization (0.25%, 30 minutes) then plated onto 96 well dishes at the density of 60,000 cell per well in 75 μl of DMEM without phenol red containing 4.5 g/l glucose, 10% lipid free serum from Hyclone. After 24 hours compounds were added (25 μl/well) at different concentration for further 24 hours. Measurement is performed by adding 100 μl of Steadylite per well for 30 minutes and plates are read using microplate […] reader.

T2 sequence (Q06219 whole entry): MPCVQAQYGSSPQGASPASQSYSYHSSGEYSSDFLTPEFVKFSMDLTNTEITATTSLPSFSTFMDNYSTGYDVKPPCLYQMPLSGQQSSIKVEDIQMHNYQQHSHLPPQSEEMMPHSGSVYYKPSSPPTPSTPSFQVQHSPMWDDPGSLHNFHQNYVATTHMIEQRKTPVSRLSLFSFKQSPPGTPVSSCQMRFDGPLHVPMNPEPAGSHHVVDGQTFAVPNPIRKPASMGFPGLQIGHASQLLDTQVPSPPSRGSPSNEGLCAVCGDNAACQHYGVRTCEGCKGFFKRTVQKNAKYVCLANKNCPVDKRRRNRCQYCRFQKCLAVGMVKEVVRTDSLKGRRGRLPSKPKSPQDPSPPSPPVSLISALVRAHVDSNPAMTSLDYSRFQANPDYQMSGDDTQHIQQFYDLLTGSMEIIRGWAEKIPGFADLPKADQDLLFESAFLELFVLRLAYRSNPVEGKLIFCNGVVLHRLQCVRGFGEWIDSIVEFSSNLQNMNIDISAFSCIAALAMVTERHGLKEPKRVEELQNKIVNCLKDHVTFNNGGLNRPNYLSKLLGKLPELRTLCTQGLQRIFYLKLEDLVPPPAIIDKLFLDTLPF
T1 sequence (P22736 360-598 limits assumed): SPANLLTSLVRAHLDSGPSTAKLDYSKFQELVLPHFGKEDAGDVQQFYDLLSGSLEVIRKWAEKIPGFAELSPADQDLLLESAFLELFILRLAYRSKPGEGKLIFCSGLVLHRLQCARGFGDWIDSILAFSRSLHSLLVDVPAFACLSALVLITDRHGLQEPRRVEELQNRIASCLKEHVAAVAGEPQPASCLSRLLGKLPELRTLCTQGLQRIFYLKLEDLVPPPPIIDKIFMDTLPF

The term IC50 denotes the concentration at which inhibition is half-maximal. By EC50 is commonly meant the concentration that produces a half-maximal response. With `Clc1ccc(-c2cn3c(ccc4[nH]ccc43)n2)cc1` [compound of formula (2), 2-(4-Chlorophenyl)-6H-imidazo[1,2-a]pyrrolo[2,3-e]pyridine], the IC50 in data set [1] amounted to 300 nM. Besides, the EC50 in data set [2] is 0.03 nM.
As usually defined, the melting point is the temperature, or range, at which the solid turns liquid. Turning to `Clc1ccc(-c2nc3ccc4[nH]ccc4n3c2Cl)cc1` [compound of formula (1), 1-Chloro-2-(4-chlorophenyl)-6H-imidazo[1,2-a]pyrrolo[2,3-e]pyridine], the melting point was determined as 252 °C. For the same compound, the IC50 in data set [1] stood at 10000 nM. For the same compound, in data set [2], the concentration giving a half-maximal response (EC50) turned out to be 0.2 nM.
